Like-named read-outs stand apart in the source and are kept apart here.
Tests used:
BRD4 BD1 = target: T1, BRD4 BD1 (Homo sapiens, UniProt O60885); assay: AlphaScreen binding assay, BRD4 Bromodomain 1
T1 construct: made in house
How it was run: (§1)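 An AlphaScreen competition format was used with His-BRD4 BD1 or BD2 and biotin-H4 K5/8/12/16-acetyl peptide, each at matched final levels of 50 nM (BD1) or 100 nM (BD2). Incubation in HEPES/NaCl buffer with 0.1% BSA and 0.01% Triton X-100 ran ≥1 h before IC50 determination.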

BRD4 BD2 = target: T2, BRD4 BD2 (Homo sapiens, UniProt O60885); assay: AlphaScreen binding assay, BRD4 Bromodomain 2
T2 construct: made in house
How it was run: as §1

MV4-11 cells = assay: Oncology cell growth assay (3-day proliferation, CellTiter-Glo); format: cell-based; conditions: Homo sapiens, AML cell line MV4-11, 72 hours, compounds grouped by IC50 range, read-out: MV4-11 IC50 (inhibition of proliferation, gIC50)
How it was run: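 Compounds were serially diluted 3-fold in DMSO, giving final well concentrations from 10 down to 0.0045 μM. MV4-11 cells were then seeded at 3000 cells/well in RPMI 1640 with 10% FBS and incubated 72 hours. CellTiter-Glo signal was measured and gIC50 obtained by four-parameter logistic regression.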

Row | Structure (SMILES) | IC50 (BRD4 BD1) | IC50 (BRD4 BD2) | IC50 (MV4-11 cells; MV4-11, 72 h) | IC50 (MV4-11 cells)
1 | CC(=O)N1c2ccc(-c3cnn(C4CS(=O)(=O)C4)c3)cc2N(C(=O)OC2CCOCC2)C[C@@H]1C [Example I-37, oxan-4-yl (3S)-4-acetyl-7-[1-(1,1-dioxo-1λ^6-thietan-3-yl)-1H-pyrazol-4-yl]-3-methyl-1,2,3,4-tetrahydroquinoxaline-1-carboxylate] | 100 to 1000 nM | 50 to 500 nM | 100 to 500 nM | –
2 | CNS(=O)(=O)c1ccc(-c2ccc3c(c2)N(C(=O)OC2CCOCC2)C[C@H](C)N3C(C)=O)cc1 [Example I-1262] | 100 to 1000 nM | 50 to 500 nM | 100 to 500 nM | –
3 | CNS(=O)(=O)c1cccc(-c2ccc3c(c2)N(C(=O)OC2CCCCC2)C[C@H](C)N3C(C)=O)c1 [Example I-1253] | 100 to 1000 nM | 50 to 500 nM | 100 to 500 nM | –
4 | CC(=O)N1c2ccc(-c3cnn(Cc4ccn(C)n4)c3)cc2N(C(=O)C2CC2)C[C@@H]1C [Example I-682] | 100 to 1000 nM | 50 to 500 nM | 100 to 500 nM | –
5 | CC(=O)N1c2ccc(-c3ccc(S(=O)(=O)NC(C)(C)C)cc3)cc2N(C(=O)C2CCC2)C[C@@H]1C [Example I-1128] | 1000 to 10000 nM | 50 to 500 nM | 100 to 500 nM | –
6 | CC(=O)N1c2ccc(-c3cnn(C4CCNCC4)c3)cc2N(C(=O)Oc2ccc(F)cc2F)C[C@@H]1C [Example I-191, 2,4-difluorophenyl (S)-4-acetyl-3-methyl-7-(1-(piperidin-4-yl)-1H-pyrazol-4-yl)-3,4-dihydroquinoxaline-1(2H)-carboxylate] | 100 to 1000 nM | < 50 nM | – | 100 to 500 nM
7 | CC(=O)N1c2ccc(-c3cnn(C4CC4)c3)cc2N(C(=O)OCC(F)(F)F)C[C@@H]1C [Example I-79, (S)-2,2,2-trifluoroethyl 4-acetyl-7-(1-cyclopropyl-1H-pyrazol-4-yl)-3-methyl-3,4-dihydroquinoxaline-1(2H)-carboxylate] | 100 to 1000 nM | 50 to 500 nM | 100 to 500 nM | –
8 | CC(=O)N1c2ccc(-c3cnn(C4CCNCC4)c3)cc2N(C(=O)OC2CCCCC2)C[C@@H]1C [Example I-1303] | 100 to 1000 nM | 50 to 500 nM | < 100 nM | –
9 | CC(=O)N1c2ccc(-c3cnn(CCC(N)=O)c3)cc2N(C(=O)OC(C)C)C[C@@H]1C [Example I-606] | 100 to 1000 nM | < 50 nM | 100 to 500 nM | –
10 | CC(=O)N[C@@H]1CCN(C(=O)c2ccc(-c3ccc4c(c3)N(C(=O)OC(C)C)C[C@H](C)N4C(=O)C3CC3)cc2)C1 [Example I-568] | 100 to 1000 nM | 50 to 500 nM | 100 to 500 nM | –
11 | CC(=O)N1c2ccc(-c3cnn(C4CC4)c3)cc2N(C(=O)Oc2cccc(C#N)c2)C[C@@H]1C [Example I-501] | 100 to 1000 nM | 50 to 500 nM | 100 to 500 nM | –
12 | CC(=O)N1c2ccc(-c3ccc(NS(C)(=O)=O)cc3)cc2N(C(=O)Oc2ccc(F)cc2)C[C@@H]1C [Example I-1019] | 100 to 1000 nM | < 50 nM | 100 to 500 nM | –
13 | COC(=O)N1c2ccc(-c3cnn(CCC#N)c3)cc2N(C(=O)Oc2ccc(F)cc2)C[C@@H]1C [Example I-1025] | 100 to 1000 nM | < 50 nM | > 500 nM | –
14 | CC(=O)N1c2ccc(-c3ccc(C(=O)N4CCC[C@@H](N)C4)cc3)cc2N(C(=O)OC(C)C)C[C@@H]1C [Example I-589] | 100 to 1000 nM | 50 to 500 nM | 100 to 500 nM | –
15 | COC(=O)N1c2ccc(-c3cnn(CC(N)=O)c3)cc2N(C(=O)OC(C)C)C[C@@H]1C [Example I-319] | 100 to 1000 nM | 50 to 500 nM | > 500 nM | –
16 | CC(=O)N1c2ccc(-c3cc(Cl)cc(S(C)(=O)=O)c3)cc2N(C(=O)C2CCC2)C[C@@H]1C [Example I-1095] | 1000 to 10000 nM | > 500 nM | > 500 nM | –
17 | COC(=O)Nc1ccc(-c2ccc3c(c2)N(C(=O)c2ccco2)C[C@H](C)N3C(C)=O)cc1 [Example I-414] | 1000 to 10000 nM | < 50 nM | 100 to 500 nM | –
18 | CCS(=O)(=O)c1cccc(-c2ccc3c(c2)N(C(=O)C2CCC2)C[C@H](C)N3C(C)=O)c1 [Example I-1091] | 1000 to 10000 nM | 50 to 500 nM | > 500 nM | –
19 | CC(=O)N1c2ccc(-c3cnn(C4CC4)c3)cc2N(C(=O)OC(C)C)C[C@@H]1C [Example I-22, (S)-isopropyl 4-acetyl-7-(1-cyclopropyl-1H-pyrazol-4-yl)-3-methyl-3,4-dihydroquinoxaline-1(2H)-carboxylate] | 100 to 1000 nM | 50 to 500 nM | < 100 nM | –
20 | CCS(=O)(=O)Nc1ccc(-c2ccc3c(c2)N(C(=O)C2CCC2)C[C@H](C)N3C(C)=O)cc1 [Example I-1136] | 100 to 1000 nM | 50 to 500 nM | 100 to 500 nM | –
21 | CC(=O)N1c2ccc(-c3cnn(CCO)c3)cc2N(C(=O)Oc2ccccn2)C[C@@H]1C [Example I-1334] | 100 to 1000 nM | 50 to 500 nM | 100 to 500 nM | –

Row | Structure (SMILES) | IC50 (BRD4 BD1) | IC50 (BRD4 BD2) | IC50 (MV4-11 cells; MV4-11, 72 h) | IC50 (MV4-11 cells)
22 | COC(=O)N1c2ccc(-c3ccc(C(=O)N4CC[C@H](O)C4)cc3)cc2N(C(=O)OC(C)C)C[C@@H]1C [Example I-575] | 100 to 1000 nM | 50 to 500 nM | 100 to 500 nM | –
23 | CC(=O)N1c2ccc(-c3cnn(C4CCOCC4)c3)cc2N(C(=O)OC2CCOCC2)C[C@@H]1C [Example I-38, (S)-tetrahydro-2H-pyran-4-yl 4-acetyl-3-methyl-7-(1-(tetrahydro-2H-pyran-4-yl)-1H-pyrazol-4-yl)-3,4-dihydroquinoxaline-1(2H)-carboxylate] | 100 to 1000 nM | 50 to 500 nM | 100 to 500 nM | –
24 | COCCn1cc(-c2ccc3c(c2)N(C(=O)OC(C)C)C[C@H](C)N3C(=O)C2CC2)cn1 [Example I-314] | 100 to 1000 nM | 50 to 500 nM | 100 to 500 nM | –
25 | CC(=O)N1c2ccc(-c3cnn(C4CC4)c3)cc2N(C(=O)Oc2ccc(-n3cncn3)cc2)C[C@@H]1C [Example I-1194] | 100 to 1000 nM | 50 to 500 nM | 100 to 500 nM | –
26 | COC(=O)N1c2ccc(-c3cnn(Cc4c(C)noc4C)c3)cc2N(C(=O)OC(C)C)C[C@@H]1C [Example I-634] | 100 to 1000 nM | 50 to 500 nM | 100 to 500 nM | –
27 | CC(=O)N1c2ccc(-c3cnn(Cc4cnccn4)c3)cc2N(C(=O)OC(C)C)C[C@@H]1C [Example I-116, (S)-isopropyl 4-acetyl-3-methyl-7-(1-(pyrazin-2-ylmethyl)-1H-pyrazol-4-yl)-3,4-dihydroquinoxaline-1(2H)-carboxylate] | 100 to 1000 nM | 50 to 500 nM | 100 to 500 nM | –
28 | CC(=O)N1c2ccc(-c3ccc(N4CCOCC4)cc3)cc2N(C(=O)c2ccco2)C[C@@H]1C [Example I-850] | 100 to 1000 nM | < 50 nM | 100 to 500 nM | –
29 | CC(=O)N1c2ccc(-c3ccc(S(=O)(=O)C4CC4)cc3)cc2N(C(=O)C2CCC2)C[C@@H]1C [Example I-1032] | 1000 to 10000 nM | 50 to 500 nM | 100 to 500 nM | –
30 | CC(=O)N1c2ccc(-c3ccc(N)nc3)cc2N(C(=O)c2ccco2)C[C@@H]1C [Example I-295] | 1000 to 10000 nM | < 50 nM | 100 to 500 nM | –
31 | CC(=O)N1c2ccc(-c3ccc(NS(C)(=O)=O)c(F)c3)cc2N(C(=O)C2CC2)C[C@@H]1C [Example I-1180] | 100 to 1000 nM | 50 to 500 nM | > 500 nM | –
32 | CC(C)OC(=O)N1C[C@H](C)N(C(=O)C2CC2)c2ccc(-c3cnn(C4CCNCC4)c3)cc21 [Example I-354] | 100 to 1000 nM | 50 to 500 nM | 100 to 500 nM | –
33 | CC(=O)N1c2ccc(-c3ccc(C(=O)N(C)CCN(C)C)cc3)cc2N(C(=O)OC(C)C)C[C@@H]1C [Example I-539] | 100 to 1000 nM | 50 to 500 nM | 100 to 500 nM | –
34 | CC(=O)N1c2ccc(-c3ccc4nccn4c3)cc2N(C(=O)c2ccco2)C[C@@H]1C [Example I-382] | 1000 to 10000 nM | > 500 nM | 100 to 500 nM | –
35 | CC(=O)N1c2ccc(-c3cnn(C4CCCS(=O)(=O)C4)c3)cc2N(C(=O)OC2CCOCC2)C[C@@H]1C (stereo partly drawn) [Example I-161, oxan-4-yl (3S)-4-acetyl-7-[1-(1,1-dioxo-1λ^6-thian-3-yl)-1H-pyrazol-4-yl]-3-methyl-1,2,3,4-tetrahydroquinoxaline-1-carboxylate] | 100 to 1000 nM | 50 to 500 nM | 100 to 500 nM | –
36 | CC(=O)N1c2ccc(-c3ccc(NS(C)(=O)=O)cc3)cc2N(C(=O)Oc2ccc(F)cc2F)C[C@@H]1C [Example I-1013] | 100 to 1000 nM | 50 to 500 nM | 100 to 500 nM | –
37 | CC(=O)N1c2ccc(-c3cnn(Cc4ccccc4)c3)cc2N(C(=O)c2ccco2)C[C@@H]1C [Example I-409] | 100 to 1000 nM | < 50 nM | < 100 nM | –
38 | CC(=O)N1c2ccc(-c3ccc(S(N)(=O)=O)cc3)cc2N(C(=O)OC(C)C)C[C@@H]1C [Example I-1069] | 100 to 1000 nM | 50 to 500 nM | 100 to 500 nM | –
39 | CCOC(=O)N1C[C@H](C)N(C(C)=O)c2ccc(-c3cc(N4CCCS4(=O)=O)cc(C(F)(F)F)c3)cc21 [Example I-1165] | 1000 to 10000 nM | 50 to 500 nM | > 500 nM | –
40 | CC(C)OC(=O)N1C[C@H](C)N(C(=O)C2CC2)c2ccc(-c3ccc(C(=O)N4CC[C@@H](O)C4)cc3)cc21 [Example I-576] | 100 to 1000 nM | 50 to 500 nM | 100 to 500 nM | –
41 | COC(=O)N1c2ccc(-c3ccc(C(=O)N4CCNCC4)cc3)cc2N(C(=O)C2CC2)C[C@@H]1C [Example I-456] | 100 to 1000 nM | 50 to 500 nM | 100 to 500 nM | –

Source: patent US10703764B2, “Benzopiperazine compositions as BET bromodomain inhibitors” (FORMA Therapeutics, Inc., priority 2013, dated 2020)
